Measured values as given in US8481576B2 (Abbott GmbH & Co. KG, priority 2004, dated 2013).
pKi: −log10 of the molar value. Where a name gives a salt, the structure may show the parent alone.

target: HIV-1 RT (Human immunodeficiency virus type 1 group M subtype B, UniProt P03366); assay: not given; conditions: Bioorg. Med. Chem. Lett. 2000 (10), 265-268; cited from earlier work

For COc1ccccc1CCNC(=N)Nc1nccs1 [N-[2-(2-methoxyphenyl)ethyl]-N′-1,3-thiazole-2-ylguanidine], the biological activity is given as “did not show any demonstrable biological activity”.

target: T1, h5-HT5A receptor (Homo sapiens, UniProt P47898); assay: [3H]5-CT binding assay h5-HT5A; conditions: membranes from HEK293 cells expressing h5-HT5A, 2.5 nM [3H]5-CT; read-out: Binding affinity 5-HT5A (Ki)
T1 construct: expressed in transfected cells; host or cells: HEK293
Summary of the method: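 Membranes from HEK293 cells stably expressing h5-HT5A incubated with 2.5 nM [3H]5-CT and compound in 100 mM Tris-HCl pH 7.7, 1 mM EDTA, 75 min at 30° C. Nonspecific binding with 10 μM methiothepine; filtration and scintillation counting give Ki or IC50.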

T1 sequence (P47898 whole entry): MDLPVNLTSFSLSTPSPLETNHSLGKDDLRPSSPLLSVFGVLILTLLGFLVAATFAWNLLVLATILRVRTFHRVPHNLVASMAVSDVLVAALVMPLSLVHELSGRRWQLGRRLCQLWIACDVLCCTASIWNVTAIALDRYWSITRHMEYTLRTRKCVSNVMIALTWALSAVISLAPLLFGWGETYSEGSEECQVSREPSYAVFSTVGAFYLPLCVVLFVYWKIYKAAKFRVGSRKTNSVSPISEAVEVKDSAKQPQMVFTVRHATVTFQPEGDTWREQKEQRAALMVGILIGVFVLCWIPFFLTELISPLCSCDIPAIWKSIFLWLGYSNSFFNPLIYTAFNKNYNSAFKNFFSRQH

COc1cccc(OC)c1CNC(=N)Nc1nc(-c2ccc(F)c3ccccc23)cs1 [Example 114, N-(2,6-dimethoxybenzyl)-N′-[4-(4-fluoro-1-naphthyl)-1,3-thiazole-2-yl]guanidine] and COc1cccc(OC)c1CNC(=N)Nc1nnc[nH]1 [Example 189, N-(2,6-Dimethoxybenzyl)-N′-4H-1,2,4-triazole-3-ylguanidine acetate] cannot be ordered by pKi: > 7.30 for the first, > 7.30 for the second.

COc1cccc(OC)c1CNC(=N)Nc1nc(-c2cc(Cl)ccc2Cl)cs1 [Example 21, N-[4-(2,5-dichlorophenyl)-1,3-thiazole-2-yl]-N′-(2,6-dimethoxybenzyl)guanidine hydrobromide] and COc1cccc(OC)c1CNC(=N)Nc1nc2c(s1)CN(Cc1ccccc1)CC2 [Example 226, N-(5-benzyl-4,5,6,7-tetrahydro[1,3]thiazolo[5,4-c]pyridine-2-yl)-N′-(2,6-dimethoxybenzyl)guanidine] cannot be ordered by pKi: > 7.30 for the first, > 7.30 for the second.

First: COc1cccc(OC)c1CNC(=N)Nc1nc(-c2cccc(C(F)(F)F)c2)cs1 [Example 108, N-(2,6-dimethoxybenzyl)-N′-{4-[3-(trifluoromethyl)phenyl]-1,3-thiazole-2-yl}guanidine]
Second: COc1ccccc1CNC(=N)Nc1ccn(-c2ccccc2)n1 [Example 220, N-(2-methoxybenzyl)-N′-(1-phenyl-1H-pyrazole-3-yl)guanidine]
The pKi of the first is lower: < 6.30 for the first, > 7.30 for the second.

Compared with COc1cccc(OC)c1CNC(=N)Nc1ccn(C)n1 [Example 215, N-(2,6-dimethoxybenzyl)-N′-(1-methyl-1H-pyrazole-3-yl)guanidine], COc1ccccc1CNC(=N)Nc1cc[nH]n1 [Example 205, N-(2-methoxybenzyl)-N′-1H-pyrazole-3-ylguanidine] is lower in pKi: > 7.30 for the first, 6.30 to 7.30 for the second.

COc1cccc(OC)c1CNC(=N)Nc1nc(-c2ccc(F)cc2OCCN2CCOCC2)cs1 [Example 153, N-(2,6-dimethoxybenzyl)-N′-{4-[4-fluoro-2-(2-morpholine-4-ylethoxy)phenyl]-1,3-thiazole-2-yl}guanidine] and COc1cccc(OC)c1CNC(=N)Nc1nc(CNC(=O)c2ccccc2)cs1 [Example 155, N-[(2-{[[(2,6-dimethoxybenzyl)amino](imino)methyl]amino}-1,3-thiazole-4-yl)methyl]benzamide] cannot be ordered by pKi: > 7.30 for the first, > 7.30 for the second.

COc1cccc(OC)c1CNC(=N)Nc1nc(-c2cc(Cl)cs2)cs1 [Example 124, N-[4-(4-chloro-2-thienyl)-1,3-thiazole-2-yl]-N′-(2,6-dimethoxybenzyl)guanidine] and COc1cccc(-c2csc(NC(=N)NCc3c(OC)cccc3OC)n2)c1 [Example 61, N-(2,6-dimethoxybenzyl)-N′-[4-(3-methoxyphenyl)-1,3-thiazole-2-yl]guanidine] cannot be ordered by pKi: > 7.30 for the first, > 7.30 for the second.

First: COc1cccc(Cl)c1CNC(=N)Nc1nc(-c2ncccn2)cs1 [Example 135, N-(2-chloro-6-methoxybenzyl)-N′-(4-pyrimidine-2-yl-1,3-thiazole-2-yl)guanidine]
Second: COc1ccccc1CNC(=N)Nc1nc(-c2cccnc2)cs1 [Example 48, N-(2-methoxybenzyl)-N′-(4-pyridine-3-yl-1,3-thiazole-2-yl)guanidine]
The pKi of the first is higher: > 7.30 for the first, 6.30 to 7.30 for the second.

First: COc1ccc(F)cc1CNC(=N)Nc1nc(-c2ccccc2)cs1 [Example 129, N-(5-fluoro-2-methoxybenzyl)-N′-(4-phenyl-1,3-thiazole-2-yl)guanidine]
Second: 2-(2-{[[(2,6-dimethoxybenzyl)amino](imino)methyl]amino}-1,3-thiazole-4-yl)-N-(2-methoxybenzyl)acetamide (2E)-But-2-endioate [Example 51]
The pKi of the first is lower: 6.30 to 7.30 for the first, > 7.30 for the second.

COC(=O)c1sc(NC(=N)NCc2c(OC)cccc2OC)nc1-c1ccc(F)cc1 [Example 160, Methyl-2-{[[(2,6-dimethoxybenzyl)amino](imino)methyl]amino}-4-(4-fluorophenyl)-1,3-thiazole-5-carboxylate] and “N-4H-chromeno[4,3-d][1,3]thiazole-2-yl-N′-(2,6-dimethoxybenzyl)guanidine [Example 222]” cannot be ordered by pKi: > 7.30 for the first, > 7.30 for the second.

COc1cccc(OC)c1CNC(=N)Nc1nc(-c2ccncc2)cs1 [Example 45, N-(2,6-dimethoxybenzyl)-N′-(4-pyridine-4-yl-1,3-thiazole-2-yl)guanidine] and COc1cccc(OC)c1CNC(=N)Nc1nc(-c2ccnc3c(F)cccc23)cs1 [Example 165, N-(2,6-dimethoxybenzyl)-N′-[4-(8-fluorochinoline-4-yl)-1,3-thiazole-2-yl]guanidine] cannot be ordered by pKi: > 7.30 for the first, > 7.30 for the second.

COC(=O)NCc1csc(NC(=N)NCc2c(OC)cccc2OC)n1 [Example 159, Methyl[(2-{[[(2,6-dimethoxybenzyl)amino](imino)methyl]amino}-1,3-thiazole-4-yl)methyl]carbamate] and COc1cccc(OC)c1CNC(=N)Nc1n[nH]c2ccccc12 [Example 180, N-(2,6-dimethoxybenzyl)-N′-1H-indazole-3-ylguanidine acetate] cannot be ordered by pKi: > 7.30 for the first, > 7.30 for the second.

“Methyl-[2-({imino[(2-methoxybenzyl)amino]methyl}amino)-1,3-thiazole-4-yl]acetate [Example 47]” and COc1cccc(OC)c1CNC(=N)Nc1nc(C2CCCN2S(=O)(=O)c2ccccc2)cs1 (centres unmarked) [Example 150, N-(2,6-dimethoxybenzyl)-N′-{4-[1-(phenylsulfonyl)pyrrolidine-2-yl]-1,3-thiazole-2-yl}guanidine] cannot be ordered by pKi: > 7.30 for the first, > 7.30 for the second.

First: COc1ccc(CNC(=N)Nc2nccs2)cc1 [Example 15, N-(4-methoxybenzyl)-N′-1,3-thiazole-2-ylguanidine]
Second: COc1cccc(OC)c1CNC(=N)Nc1nc(-c2ccc(Cl)s2)cs1 [Example 77, N-[4-(5-chloro-2-thienyl)-1,3-thiazole-2-yl]-N′-(2,6-dimethoxybenzyl)guanidine hydrobromide]
The pKi of the first is lower: < 6.30 for the first, > 7.30 for the second. The second binds more tightly here.

Compared with COc1cccc(OC)c1CNC(=N)Nc1nc(CN(C)C)cs1 [Example 158, N-(2,6-Dimethoxybenzyl)-N′-{4-[(dimethylamino)methyl]-1,3-thiazole-2-yl}guanidine acetate], N=C(NCc1ccccc1C(F)(F)F)Nc1nccs1 [Example 18, N-1,3-thiazole-2-yl-N′[2-(trifluoromethyl)benzyl]guanidine] is lower in pKi: > 7.30 for the first, < 6.30 for the second.
